Assays:
GFAT1S = molecular target: T1, GFAT1S (Homo sapiens, UniProt Q06210); assay: GFAT activity assay (spectrophotometric, GDH/APAD coupled): Km values and inhibition pattern of UDP-G1cNAc, GFAT1S; format: biochemical
T1 construct: made in house; host or cells: E. coli BL21-CodonPlus(DE3)RIL, pET23b vector; ultracentrifuged lysate supernatant, not purified
Protocol: (§1) GFAT activity was determined in accordance with Marshall et al. by means of spectrophotometry using a microplate (96 wells) (Journal of Biological Chemistry, vol. 266 No. 8, 4706–4712 (1991)) in the following manner. Glutamate produced by GFAT was allowed-to react with glutamate dehydrogenase (GDH), during which a reductive reaction of coenzyme APAD into APADH proceeded simultaneously. Changes in absorbance that accompany the reduction reaction of APAD to APADH are considered to represent GFAT activity.
(§2) Briefly, an appropriately diluted solution of a lyzate of GFAT1L- or GFAT1S-introduced E. coli (50 μl) was added to a substrate solution (200 μl) containing a sodium phosphate buffer (pH=7.5; 40 mM), potassium chloride (50 mM), EDTA (1.25 mM), APAD (0.3 mM), GDH (6 U/ml), glutamine (0–6 mM), and fructose-6-phosphate (F-6-P: 0–6 mM), and the mixture was allowed to react at 37° C. for 60 minutes. The absorbance change at 365 nm associated with the reaction was measured by use of a microplate reader.
(§3) In order to study the difference in terms of enzymatic behavior between GFAT1L and GFAT1S, Km values were determined using, as substrates, glutamine and F-6-P. Km values were calculated on the basis of :S/v−S plotting and v−v/S plotting, which were made with regard to the enzyme substrate concentration (S) and activity of the enzyme (reaction rate (v)). […]

GFAT1L = molecular target: T2, GFAT1L (Homo sapiens, UniProt Q06210); assay: GFAT activity assay (spectrophotometric, GDH/APAD coupled): Km values and inhibition pattern of UDP-G1cNAc, GFAT1L; format: biochemical
T2 construct: made in house; host or cells: E. coli BL21-CodonPlus(DE3)RIL, pET23b vector; ultracentrifuged lysate supernatant, not purified
T2 sequence (Q06210 whole entry): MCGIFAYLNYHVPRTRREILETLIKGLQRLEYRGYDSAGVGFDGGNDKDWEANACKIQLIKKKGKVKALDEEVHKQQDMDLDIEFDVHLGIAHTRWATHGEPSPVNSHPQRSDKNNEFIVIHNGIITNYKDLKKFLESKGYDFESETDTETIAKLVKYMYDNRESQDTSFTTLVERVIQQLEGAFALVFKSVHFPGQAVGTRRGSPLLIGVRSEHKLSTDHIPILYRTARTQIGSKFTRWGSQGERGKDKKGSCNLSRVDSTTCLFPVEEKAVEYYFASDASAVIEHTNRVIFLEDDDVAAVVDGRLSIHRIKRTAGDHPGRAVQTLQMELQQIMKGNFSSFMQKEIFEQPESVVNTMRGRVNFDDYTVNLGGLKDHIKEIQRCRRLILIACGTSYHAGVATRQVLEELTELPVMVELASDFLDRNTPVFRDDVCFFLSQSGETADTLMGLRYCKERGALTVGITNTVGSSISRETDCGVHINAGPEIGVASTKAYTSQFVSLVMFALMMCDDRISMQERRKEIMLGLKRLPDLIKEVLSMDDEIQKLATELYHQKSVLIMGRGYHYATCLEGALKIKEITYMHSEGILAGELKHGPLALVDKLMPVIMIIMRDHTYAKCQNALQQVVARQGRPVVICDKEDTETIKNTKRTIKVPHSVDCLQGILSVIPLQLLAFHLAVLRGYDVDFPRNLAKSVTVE
Protocol: as §1, §2, §3

[1] = F-6-P as substrate, UDP-G1cNAc 30, 100 μM
[2] = glutamine as substrate, UDP-G1cNAc 10, 30, 100 μM

T1 sequence (Q06210 1-681 isoform Q06210-2): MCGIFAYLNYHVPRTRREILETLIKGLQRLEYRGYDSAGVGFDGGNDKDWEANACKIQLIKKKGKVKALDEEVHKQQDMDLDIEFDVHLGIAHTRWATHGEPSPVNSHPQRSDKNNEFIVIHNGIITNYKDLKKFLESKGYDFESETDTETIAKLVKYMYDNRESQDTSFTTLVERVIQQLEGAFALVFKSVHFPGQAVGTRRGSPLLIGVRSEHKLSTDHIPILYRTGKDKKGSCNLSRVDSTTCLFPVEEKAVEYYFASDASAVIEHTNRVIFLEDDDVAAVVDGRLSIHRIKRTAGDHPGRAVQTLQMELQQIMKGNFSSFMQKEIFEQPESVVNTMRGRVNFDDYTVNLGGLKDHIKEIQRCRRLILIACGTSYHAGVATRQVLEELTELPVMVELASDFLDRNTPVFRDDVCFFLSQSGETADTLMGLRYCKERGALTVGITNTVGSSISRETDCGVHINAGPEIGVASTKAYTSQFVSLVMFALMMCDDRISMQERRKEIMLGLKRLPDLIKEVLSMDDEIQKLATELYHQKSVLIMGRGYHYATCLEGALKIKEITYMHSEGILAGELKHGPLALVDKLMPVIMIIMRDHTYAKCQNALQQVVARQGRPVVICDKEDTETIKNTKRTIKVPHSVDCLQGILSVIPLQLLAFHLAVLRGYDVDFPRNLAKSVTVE

With `CC(=O)N[C@H]1[C@@H](OP(=O)(O)OP(=O)(O)OC[C@H]2O[C@@H](n3ccc(=O)[nH]c3=O)[C@H](O)[C@@H]2O)O[C@H](CO)[C@@H](O)[C@@H]1O` [UDP-G1cNAc, UDP-N-acetylglucosamine] the “Inhibition pattern of UDP-G1cNAc against GFAT activity, F-6-P” value (GFAT1S; [1]) was “competitive inhibition”, the “Inhibition pattern of UDP-G1cNAc against GFAT activity, Glutamine” value (GFAT1S; [2]) was “un-competitive inhibition” and the “Inhibition pattern of UDP-G1cNAc against GFAT activity, F-6-P” value (GFAT1L; [1]) was “mixed inhibition”. The “Inhibition pattern of UDP-G1cNAc against GFAT activity, Glutamine” value (GFAT1L; [2]) was “mixed inhibition”.
